Laboratory results reported in patent US8013156B2 (Exelixis, Inc., priority 2003, dated 2011).

target: Tie-2 (Homo sapiens, UniProt Q02763); assay: Tie-2 tyrosine kinase activity assay (luciferase/luciferin ATP consumption with pEY substrate, or 33P-ATP incorporation); type: biochemical; settings: human enzyme Tie-2
Summary of the method: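 Values are IC50 categories (A <50 nM to D ≥10,000 nM), with Ki obtainable by fitting rates to a tight-binding model. Assay formats: 33P-ATP phosphate transfer to adsorbed generic substrate counted by scintillation, or luciferase-detected ATP depletion using pEY.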

Sequence of Tie-2 (Q02763 23-1124): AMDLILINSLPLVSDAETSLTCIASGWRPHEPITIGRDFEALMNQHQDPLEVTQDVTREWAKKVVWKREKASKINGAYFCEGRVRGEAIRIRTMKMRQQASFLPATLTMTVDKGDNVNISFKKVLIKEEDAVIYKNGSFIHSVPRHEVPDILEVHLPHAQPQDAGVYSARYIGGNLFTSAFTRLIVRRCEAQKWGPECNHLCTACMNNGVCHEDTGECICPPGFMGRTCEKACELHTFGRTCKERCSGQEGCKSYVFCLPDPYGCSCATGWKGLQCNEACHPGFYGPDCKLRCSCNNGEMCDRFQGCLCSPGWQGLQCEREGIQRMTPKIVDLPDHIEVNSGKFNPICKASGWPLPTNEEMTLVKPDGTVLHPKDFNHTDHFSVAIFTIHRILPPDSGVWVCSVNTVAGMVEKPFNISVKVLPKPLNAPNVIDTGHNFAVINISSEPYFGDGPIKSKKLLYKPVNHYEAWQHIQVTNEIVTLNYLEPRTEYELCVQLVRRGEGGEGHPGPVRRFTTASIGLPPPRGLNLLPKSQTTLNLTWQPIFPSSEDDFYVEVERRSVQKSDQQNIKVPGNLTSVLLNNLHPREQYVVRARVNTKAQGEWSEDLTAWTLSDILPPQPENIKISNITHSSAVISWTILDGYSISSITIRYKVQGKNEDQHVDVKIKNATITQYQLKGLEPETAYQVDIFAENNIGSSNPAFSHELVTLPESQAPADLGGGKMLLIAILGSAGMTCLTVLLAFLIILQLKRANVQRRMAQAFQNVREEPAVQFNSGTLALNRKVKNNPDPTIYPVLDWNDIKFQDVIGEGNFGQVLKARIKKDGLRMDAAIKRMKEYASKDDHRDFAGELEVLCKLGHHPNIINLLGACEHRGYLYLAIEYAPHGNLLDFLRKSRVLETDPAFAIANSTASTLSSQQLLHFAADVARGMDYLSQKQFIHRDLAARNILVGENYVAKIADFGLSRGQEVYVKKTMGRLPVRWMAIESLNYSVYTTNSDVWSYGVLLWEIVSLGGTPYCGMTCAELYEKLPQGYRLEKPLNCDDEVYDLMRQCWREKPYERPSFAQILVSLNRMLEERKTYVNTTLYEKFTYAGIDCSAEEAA

Row | SMILES | IC50 [nM]
1 | Nc1nccc(COc2cccnc2N2CCN(C(=O)Nc3cccc(C(F)(F)F)c3)CC2)n1 [Example 174, 4-(3-{[(2-aminopyrimidin-4-yl)methyl]oxy}pyridin-2-yl)-N-[3-(trifluoromethyl)phenyl]piperazine-1-carboxamide] | < 50
2 | CCc1cc(NC(=O)N2CCN(c3ncccc3OCc3ccnc(N)n3)CC2)ccc1F [Example 176, 4-(3-{[(2-aminopyrimidin-4-yl)methyl]oxy}pyridin-2-yl)-N-(3-ethyl-4-fluorophenyl)piperazine-1-carboxamide] | < 50
3 | Nc1nccc(COc2cccnc2N2CCN(CC(=O)Nc3cc(C(F)(F)F)cc(C(F)(F)F)c3)CC2)n1 [Example 177, 2-[4-(3-{[(2-aminopyrimidin-4-yl)methyl]oxy}pyridin-2-yl)piperazin-1-yl]-N-[3,5-bis(trifluoromethyl)phenyl]acetamide] | 1000 to 10000
4 | Nc1nccc(COc2cccnc2N2CCN(C(=O)Nc3ccccc3)CC2)n1 [Example 178, 4-(3-{[(2-aminopyrimidin-4-yl)methyl]oxy}pyridin-2-yl)-N-phenylpiperazine-1-carboxamide] | 1000 to 10000
5 | CCc1cc(Cl)cc(NC(=O)N2CCN(c3ncccc3OCc3ccnc(N)n3)CC2)c1 [Example 179, 4-(3-{[(2-aminopyrimidin-4-yl)methyl]oxy}pyridin-2-yl)-N-(3-chloro-5-ethylphenyl)piperazine-1-carboxamide] | < 50
6 | CCc1ccc(F)c(NC(=O)N2CCN(c3ncccc3OCc3ccnc(N)n3)CC2)c1 [Example 180, 4-(3-{[(2-aminopyrimidin-4-yl)methyl]oxy}pyridin-2-yl)-N-(5-ethyl-2-fluorophenyl)piperazine-1-carboxamide] | < 50
7 | CCc1cc(Br)cc(NC(=O)N2CCN(c3ncccc3OCc3ccnc(N)n3)CC2)c1 [Example 181, 4-(3-{[(2-aminopyrimidin-4-yl)methyl]oxy}pyridin-2-yl)-N-(3-bromo-5-ethylphenyl)piperazine-1-carboxamide] | < 50
8 | CCc1cccc(NC(=O)N2CCN(c3ncccc3OCc3ccnc(NC(=O)OCCN4CCN(C)CC4)c3)CC2)c1 [Example 182, 2-(4-methylpiperazin-1-yl)ethyl [4-({[2-(4-{[(3-ethylphenyl)amino]carbonyl}piperazin-1-yl)pyridin-3-yl]oxy}methyl)pyridin-2-yl]carbamate] | < 50
9 | Nc1nccc(COc2cccnc2N2CCN(C(=O)Nc3cccc(Cl)c3)CC2)n1 [Example 183, 4-(3-{[(2-aminopyrimidin-4-yl)methyl]oxy}pyridin-2-yl)-N-(3-chlorophenyl)piperazine-1-carboxamide] | 50 to 1000
10 | Nc1nccc(COc2cccnc2N2CCN(C(=O)Nc3cccc(Br)c3)CC2)n1 [Example 184, 4-(3-{[(2-aminopyrimidin-4-yl)methyl]oxy}pyridin-2-yl)-N-(3-bromophenyl)piperazine-1-carboxamide] | < 50
11 | CC(=O)N1CCN(c2ncccc2OCc2ccnc(NC(=O)CN3CCN(C)CC3)c2)CC1 [Example 185, N-[4-({[2-(4-acetylpiperazin-1-yl)pyridin-3-yl]oxy}methyl)pyridin-2-yl]-2-(4-methylpiperazin-1-yl)acetamide] | ≥ 10000
12 | Nc1nccc(COc2cccnc2N2CCN(C(=O)Nc3cccc(F)c3)CC2)n1 [Example 186, 4-(3-{[(2-aminopyrimidin-4-yl)methyl]oxy}pyridin-2-yl)-N-(3-fluorophenyl)piperazine-1-carboxamide] | 50 to 1000
13 | Nc1nccc(COc2cccnc2N2CCN(C(=O)Nc3ccc(F)cc3)CC2)n1 [Example 187, 4-(3-{[(2-aminopyrimidin-4-yl)methyl]oxy}pyridin-2-yl)-N-(4-fluorophenyl)piperazine-1-carboxamide] | 1000 to 10000
14 | Nc1nccc(COc2cccnc2N2CCN(C(=O)Nc3ccccc3F)CC2)n1 [Example 188, 4-(3-{[(2-aminopyrimidin-4-yl)methyl]oxy}pyridin-2-yl)-N-(2-fluorophenyl)piperazine-1-carboxamide] | 1000 to 10000
15 | CCc1cc(CC)cc(NC(=O)N2CCN(c3ncccc3OCc3ccnc(N)n3)CC2)c1 [Example 189, 4-(3-{[(2-aminopyrimidin-4-yl)methyl]oxy}pyridin-2-yl)-N-(3,5-diethylphenyl)piperazine-1-carboxamide] | < 50
16 | CCc1cccc(NC(=O)N2CCN(c3ncc(Br)cc3OCc3ccnc(N)n3)CC2)c1 [Example 190, 4-(3-{[(2-aminopyrimidin-4-yl)methyl]oxy}-5-bromopyridin-2-yl)-N-(3-ethylphenyl)piperazine-1-carboxamide] | < 50
17 | CNC(=O)N1CCN(c2ncccc2OCc2ccnc(NC(=O)CN3CCN(C)CC3)c2)CC1 [Example 191, N-methyl-4-(3-{[(2-{[(4-methylpiperazin-1-yl)acetyl]amino}pyridin-4-yl)methyl]oxy}pyridin-2-yl)piperazine-1-carboxamide] | 1000 to 10000
18 | Nc1nccc(COc2cccnc2N2CCN(C(=O)Nc3cc(C(F)(F)F)ccc3Cl)CC2)n1 [Example 192, 4-(3-{[(2-aminopyrimidin-4-yl)methyl]oxy}pyridin-2-yl)-N-[2-chloro-5-(trifluoromethyl)phenyl]piperazine-1-carboxamide] | < 50

Row | SMILES | IC50 [nM]
19 | Nc1nccc(COc2cccnc2N2CCN(C(=O)Nc3cc(Cl)ccc3F)CC2)n1 [Example 193, 4-(3-{[(2-aminopyrimidin-4-yl)methyl]oxy}pyridin-2-yl)-N-(5-chloro-2-fluorophenyl)piperazine-1-carboxamide] | 50 to 1000
20 | CCc1cccc(NC(=O)N2CCN(c3ncc(Br)cc3OCc3nc(N)ncc3Br)CC2)c1 [Example 194, 4-(3-{[(2-amino-5-bromopyrimidin-4-yl)methyl]oxy}-5-bromopyridin-2-yl)-N-(3-ethylphenyl)piperazine-1-carboxamide] | < 50
21 | Nc1nccc(COc2cccnc2N2CCN(C(=O)Nc3cccc(C(F)(F)F)c3F)CC2)n1 [Example 195, 4-(3-{[(2-aminopyrimidin-4-yl)methyl]oxy}pyridin-2-yl)-N-[2-fluoro-3-(trifluoromethyl)phenyl]piperazine-1-carboxamide] | 50 to 1000
22 | Nc1nccc(COc2cccnc2N2CCN(C(=O)Nc3cc(F)cc(C(F)(F)F)c3)CC2)n1 [Example 196, 4-(3-{[(2-aminopyrimidin-4-yl)methyl]oxy}pyridin-2-yl)-N-[3-fluoro-5-(trifluoromethyl)phenyl]piperazine-1-carboxamide] | < 50
23 | Nc1nccc(COc2cccnc2N2CCN(C(=O)Nc3cc(Cl)cc(Cl)c3)CC2)n1 [Example 197, 4-(3-{[(2-aminopyrimidin-4-yl)methyl]oxy}pyridin-2-yl)-N-(3,5-dichlorophenyl)piperazine-1-carboxamide] | < 50
24 | CCc1cc(Cl)cc(NC(=O)N2CCN(c3ncccc3OCc3ccnc(NC(=O)CN4CCN(C)CC4)c3)CC2)c1 [Example 198, N-(3-chloro-5-ethylphenyl)-4-(3-{[(2-{[(4-methylpiperazin-1-yl)acetyl]amino}pyridin-4-yl)methyl]oxy}pyridin-2-yl)piperazine-1-carboxamide] | < 50
25 | CCc1ccc(F)c(NC(=O)N2CCN(c3ncccc3OCc3ccnc(NC(=O)CN4CCN(C)CC4)c3)CC2)c1 [Example 199, N-(5-ethyl-2-fluorophenyl)-4-(3-{[(2-{[(4-methylpiperazin-1-yl)acetyl]amino}pyridin-4-yl)methyl]oxy}pyridin-2-yl)piperazine-1-carboxamide] | < 50
26 | CCc1cc(NC(=O)N2CCN(c3ncccc3OCc3ccnc(N)n3)CC2)cc(C(F)(F)F)c1 [Example 200, 4-(3-{[(2-aminopyrimidin-4-yl)methyl]oxy}pyridin-2-yl)-N-[3-ethyl-5-(trifluoromethyl)phenyl]piperazine-1-carboxamide] | < 50
27 | CCc1cccc(NC(=O)N2CCN(c3nccnc3OCc3ccnc(N)n3)CC2)c1 [Example 201, 4-(3-{[(2-aminopyrimidin-4-yl)methyl]oxy}pyrazin-2-yl)-N-(3-ethylphenyl)piperazine-1-carboxamide] | < 50
28 | CCc1cc(Cl)cc(NC(=O)N2CCN(c3nccnc3OCc3ccnc(N)n3)CC2)c1 [Example 202, 4-(3-{[(2-aminopyrimidin-4-yl)methyl]oxy}pyrazin-2-yl)-N-(3-chloro-5-ethylphenyl)piperazine-1-carboxamide] | < 50
29 | CCc1ccc(F)c(NC(=O)N2CCN(c3nccnc3OCc3ccnc(N)n3)CC2)c1 [Example 203, 4-(3-{[(2-aminopyrimidin-4-yl)methyl]oxy}pyrazin-2-yl)-N-(5-ethyl-2-fluorophenyl)piperazine-1-carboxamide] | < 50
30 | CNC(=O)N1CCN(c2ncccc2OCc2ccnc(N)n2)CC1 [Example 204, 4-(3-{[(2-aminopyrimidin-4-yl)methyl]oxy}pyridin-2-yl)-N-methylpiperazine-1-carboxamide] | ≥ 10000
31 | CCNC(=O)N1CCN(c2ncccc2OCc2ccnc(N)n2)CC1 [Example 205, 4-(3-{[(2-aminopyrimidin-4-yl)methyl]oxy}pyridin-2-yl)-N-ethylpiperazine-1-carboxamide] | ≥ 10000
32 | Nc1nccc(COc2cccnc2N2CCN(C(=O)NC3CCCCC3)CC2)n1 [Example 206, 4-(3-{[(2-aminopyrimidin-4-yl)methyl]oxy}pyridin-2-yl)-N-cyclohexylpiperazine-1-carboxamide] | 1000 to 10000
33 | CC(=O)N1CCN(c2ncccc2OCc2ccnc(N)n2)CC1 [Example 207, 4-({[2-(4-acetylpiperazin-1-yl)pyridin-3-yl]oxy}methyl)pyrimidin-2-amine] | ≥ 10000
34 | CCC(=O)N1CCN(c2ncccc2OCc2ccnc(N)n2)CC1 [Example 208, 4-({[2-(4-propanoylpiperazin-1-yl)pyridin-3-yl]oxy}methyl)pyrimidin-2-amine] | ≥ 10000
35 | CN1CCN(CC(=O)Nc2cc(COc3cccnc3N3CCN(C(=O)Nc4cccc(C5CC5)c4)CC3)ccn2)CC1 [Example 209, N-(3-cyclopropylphenyl)-4-(3-{[(2-{[(4-methylpiperazin-1-yl)acetyl]amino}pyridin-4-yl)methyl]oxy}pyridin-2-yl)piperazine-1-carboxamide] | < 50
